Here are results for 25 compounds from PubChem BioAssay AID256 (DTP/NCI, 2004).

Where “and” joins values, the source holds several entries; their conditions need not be identical. Identical values can stand only once. Inconclusive results and toxic doses are left out.

This test has as its system CD2F1 mice, L1210 leukemia ip, survival T/C. As to the kind of experiment: NCI In Vivo Anticancer Drug Screen. Data for tumor model L1210 Leukemia (intraperitoneal) in CD2F1 (CDF1) mice. The following applies: higher = longer survival. The method, boiled down: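 Activity against a transplanted murine tumor was judged by comparing the compound group with a vehicle group. The outcome in the treated animals was divided by that in the controls.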

The mark [1] stands for this setting: endpoint: mean survival time, dose: 50.0 mg/kg/injection, schedule: Q01DX009 (ip), vehicle: Klucel (hydroxypropylcellulose) (HPC).
Setting [2] is: endpoint: mean survival time, dose: 100.0 mg/kg/injection, schedule: Q01DX009 (ip), vehicle: Klucel (hydroxypropylcellulose) (HPC).
The mark [3] stands for this setting: endpoint: mean survival time, dose: 100.0 mg/kg/injection, schedule: Q01DX001 (ip), vehicle: saline with Tween-80.
The mark [4] stands for this setting: endpoint: mean survival time, dose: 200.0 mg/kg/injection, schedule: Q01DX001 (ip), vehicle: saline with Tween-80.
The mark [5] stands for this setting: endpoint: mean survival time, dose: 400.0 mg/kg/injection, schedule: Q01DX001 (ip), vehicle: saline with Tween-80.
[6] abbreviates: endpoint: mean survival time, dose: 100.0 mg/kg/injection, schedule: Q04DX003 (ip), vehicle: saline.
Setting [7] is: endpoint: mean survival time, dose: 200.0 mg/kg/injection, schedule: Q04DX003 (ip), vehicle: saline.
Setting [8] is: endpoint: mean survival time, dose: 400.0 mg/kg/injection, schedule: Q04DX003 (ip), vehicle: saline.
Setting [9] is: endpoint: mean survival time, dose: 100.0 mg/kg/injection, schedule: Q04DX003 (ip), vehicle: saline with Tween-80.
Setting [10] is: endpoint: mean survival time, dose: 200.0 mg/kg/injection, schedule: Q04DX003 (ip), vehicle: saline with Tween-80.
The mark [11] stands for this setting: endpoint: mean survival time, dose: 400.0 mg/kg/injection, schedule: Q04DX003 (ip), vehicle: saline with Tween-80.
[12] abbreviates: endpoint: mean survival time, dose: 100.0 mg/kg/injection, schedule: Q01DX009 (ip), vehicle: saline with Tween-80.
[13] abbreviates: endpoint: mean survival time, dose: 200.0 mg/kg/injection, schedule: Q01DX009 (ip), vehicle: saline with Tween-80.
Setting [14] is: endpoint: mean survival time, dose: 400.0 mg/kg/injection, schedule: Q01DX009 (ip), vehicle: saline with Tween-80.
[15] abbreviates: endpoint: mean survival time, dose: 50.0 mg/kg/injection, schedule: Q01DX009 (ip), vehicle: saline with Tween-80.

`Clc1ncnc2c1ncn2CCCn1cnc2c(Cl)ncnc21`: the T/C runs as follows: (endpoint: mean survival time, dose: 12.5 mg/kg/injection, schedule: Q01DX009 (ip), vehicle: Klucel (hydroxypropylcellulose) (HPC)) 94 % of control; (endpoint: mean survival time, dose: 25.0 mg/kg/injection, schedule: Q01DX009 (ip), vehicle: Klucel (hydroxypropylcellulose) (HPC)) 90 % of control; under setting [1], 94 % of control; under setting [2], 103 % of control; (endpoint: mean survival time, dose: 200.0 mg/kg/injection, schedule: Q01DX009 (ip), vehicle: Klucel (hydroxypropylcellulose) (HPC)) 101 % of control.

As for `COc1ccc(Cc2ccc(OC)c(OC)c2)cc1OC`, the T/C is 96 % of control (endpoint: median survival time, dose: 25.0 mg/kg/injection, schedule: Q01DX005 (ip), vehicle: saline with Tween-80); 100 % of control (endpoint: median survival time, dose: 25.0 mg/kg/injection, schedule: Q04DX003 (ip), vehicle: saline); 98 % of control (endpoint: median survival time, dose: 50.0 mg/kg/injection, schedule: Q01DX005 (ip), vehicle: saline with Tween-80); 100 % of control (endpoint: median survival time, dose: 50.0 mg/kg/injection, schedule: Q04DX003 (ip), vehicle: saline); 98 % of control (endpoint: median survival time, dose: 100.0 mg/kg/injection, schedule: Q01DX005 (ip), vehicle: saline with Tween-80); 100 % of control (endpoint: median survival time, dose: 100.0 mg/kg/injection, schedule: Q04DX003 (ip), vehicle: saline). Further, the T/C is 97 % of control (endpoint: median survival time, dose: 200.0 mg/kg/injection, schedule: Q01DX005 (ip), vehicle: saline with Tween-80); 106 % of control (endpoint: median survival time, dose: 200.0 mg/kg/injection, schedule: Q04DX003 (ip), vehicle: saline); 95 % of control (endpoint: median survival time, dose: 400.0 mg/kg/injection, schedule: Q01DX005 (ip), vehicle: saline with Tween-80); 100 % of control (endpoint: median survival time, dose: 400.0 mg/kg/injection, schedule: Q04DX003 (ip), vehicle: saline).

Regarding `Cc1ccc2c(c1)nc1c3ccccc3nnn21`, the T/C (endpoint: mean survival time, dose: 75.0 mg/kg/injection, schedule: Q01DX001 (ip), vehicle: saline) was 95 % of control and the T/C (endpoint: mean survival time, dose: 150.0 mg/kg/injection, schedule: Q01DX001 (ip), vehicle: saline) was 95 % of control.

On to `COc1ccccc1N1C(=O)C=CC1=O`, for which the T/C runs as follows: (endpoint: mean survival time, dose: 5.0 mg/kg/injection, schedule: Q04DX003 (ip), vehicle: saline with Tween-80) 98 % of control; (endpoint: mean survival time, dose: 10.0 mg/kg/injection, schedule: Q04DX003 (ip), vehicle: saline with Tween-80) 100 % of control; (endpoint: mean survival time, dose: 20.0 mg/kg/injection, schedule: Q04DX003 (ip), vehicle: saline with Tween-80) 95 % of control.

With `Nc1ncnc2oc(-c3ccccc3)c(-c3ccccc3)c12`, the T/C under setting [3] is 87 % of control, the T/C under setting [4] is 89 % of control and the T/C under setting [5] was 87 % of control.

On to `CCCCCCCCCCCCCCCCOc1ccc(OCCCCCCCCCCCCCCC)cc1`, for which the T/C under setting [3] is 88 % of control, the T/C under setting [4] is 89 % of control and the T/C under setting [5] is 88 % of control.

Regarding `O=C1O/C(=C\c2ccccc2)c2ccccc21`, the T/C is, setting by setting: under setting [6], 104 % of control; under setting [7], 104 % of control; under setting [8], 98 % of control.

On to `Cc1ccc(O)c(/C=N/NC(N)=S)n1`, for which the T/C reads like this: (endpoint: mean survival time, dose: 12.5 mg/kg/injection, schedule: Q03HX024 (ip), vehicle: saline) 103 % of control; (endpoint: mean survival time, dose: 25.0 mg/kg/injection, schedule: Q03HX024 (ip), vehicle: saline) 102 % of control; (endpoint: mean survival time, dose: 50.0 mg/kg/injection, schedule: Q03HX024 (ip), vehicle: saline) 103 % of control.

Take `O=[N+]([O-])Nc1ccc(C(c2ccc(N[N+](=O)[O-])cc2)c2ccc([N+](=O)[O-])cc2)cc1`: the T/C is, setting by setting: (endpoint: mean survival time, dose: 100.0 mg/kg/injection, schedule: Q04DX002 (ip), vehicle: saline with Tween-80) 95 % of control; (endpoint: mean survival time, dose: 200.0 mg/kg/injection, schedule: Q04DX002 (ip), vehicle: saline with Tween-80) 88 % of control; (endpoint: mean survival time, dose: 400.0 mg/kg/injection, schedule: Q04DX002 (ip), vehicle: saline with Tween-80) 88 % of control.

`COc1ccc(NC(=O)Oc2cccnc2)c(Cl)c1`: the T/C was 100 % of control under setting [1] and 104 % of control under setting [2].

Take `CCCCCCCC(=O)Nc1ccccc1F`: the T/C is, setting by setting: under setting [6], 103 % of control; under setting [7], 103 % of control; under setting [8], 95 % of control.

As for `Nc1cc(N)c([N+](=O)[O-])cc1[N+](=O)[O-]`, the T/C by setting is: under setting [9], 100 % of control; under setting [10], 91 % of control; under setting [11], 108 % of control.

For the compound `CSCC12CCCC=C1CC1(CC2)OCCO1` (stereo not drawn), the T/C runs as follows: under setting [3], 96 % of control; under setting [4], 96 % of control; under setting [5], 96 % of control.

With `CN1CC(=O)C(=N)C1=S`, the T/C is 90 % of control under setting [3], 93 % of control under setting [4] and 90 % of control under setting [5].

As for `O=C(NO)c1cccc(O)c1O`, the T/C (endpoint: median survival time, dose: 200.0 mg/kg/injection, schedule: Q01DX009 (ip), vehicle: distilled water + Tween-80) was 162 % of control; the T/C (endpoint: median survival time, dose: 300.0 mg/kg/injection, schedule: Q01DX009 (ip), vehicle: distilled water + Tween-80) is 170 % of control; the T/C (endpoint: median survival time, dose: 450.0 mg/kg/injection, schedule: Q01DX009 (ip), vehicle: distilled water + Tween-80) was 104 % of control.

`O=C1CSC(=S)N1C1OC(CO)C(O)C1O` (stereo not drawn): the T/C was 111 % of control (endpoint: mean survival time, dose: 12.5 mg/kg/injection, schedule: Q01DX005 (ip), vehicle: distilled water + Tween-80); 102 % of control (endpoint: mean survival time, dose: 25.0 mg/kg/injection, schedule: Q01DX005 (ip), vehicle: distilled water + Tween-80); 102 % of control (endpoint: mean survival time, dose: 50.0 mg/kg/injection, schedule: Q01DX005 (ip), vehicle: distilled water + Tween-80); 101 % of control (endpoint: mean survival time, dose: 100.0 mg/kg/injection, schedule: Q01DX005 (ip), vehicle: distilled water + Tween-80); 92 % of control (endpoint: mean survival time, dose: 200.0 mg/kg/injection, schedule: Q01DX005 (ip), vehicle: distilled water + Tween-80).

Regarding `ClCc1ccc2ccccc2n1`, the T/C reads like this: under setting [12], 109 % of control; under setting [9], 104 % of control; under setting [13], 104 % of control; under setting [10], 104 % of control; under setting [11], 101 % of control.

As to `Cc1ccc(C)c2c1CC/C(=C\c1ccccc1[N+](=O)[O-])C2=O`, the T/C runs as follows: under setting [9], 96 % of control; under setting [10], 97 % of control; under setting [11], 91 % of control.

With `OC(COc1ccccc1)CN1CCCCC1` (stereo not drawn), the T/C is 100 % of control under setting [12]; 101 % of control under setting [9]; 100 % of control under setting [13]; 98 % of control under setting [10]; 102 % of control under setting [14]; 98 % of control under setting [11].

Consider `NC(=S)NNc1ccccn1`, for which the T/C was 106 % of control (endpoint: mean survival time, dose: 25.0 mg/kg/injection, schedule: Q04DX002 (ip), vehicle: saline) and 108 % of control (endpoint: mean survival time, dose: 50.0 mg/kg/injection, schedule: Q04DX002 (ip), vehicle: saline).

`O=CNc1ccccc1`: the T/C under setting [12] is 97 % of control, the T/C under setting [13] is 105 % of control and the T/C under setting [14] was 115 % of control.

Take `COC(=O)c1c(CC#N)ncn1C1CC(OC(=O)c2ccc(C)cc2)C(COC(=O)c2ccc(C)cc2)O1` (stereo not drawn): the T/C (endpoint: median survival time, dose: 9.88 mg/kg/injection, schedule: Q01DX005 (ip), vehicle: water) is 101 % of control; the T/C (endpoint: median survival time, dose: 19.75 mg/kg/injection, schedule: Q01DX005 (ip), vehicle: water) is 96 % of control; the T/C (endpoint: median survival time, dose: 39.5 mg/kg/injection, schedule: Q01DX005 (ip), vehicle: water) is 96 % of control; the T/C (endpoint: median survival time, dose: 79.0 mg/kg/injection, schedule: Q01DX005 (ip), vehicle: water) was 97 % of control; the T/C (endpoint: median survival time, dose: 158.0 mg/kg/injection, schedule: Q01DX005 (ip), vehicle: water) is 100 % of control.

For `Cc1ccc2cc(O)ccc2c1`, the T/C is 97 % of control under setting [15] and 98 % of control under setting [12].

Take `C=CCN(CC=C)C(=O)Nc1ccc(C)c(C)c1`: the T/C under setting [15] was 96 % of control, the T/C under setting [12] was 92 % of control and the T/C under setting [13] was 96 % of control.

With `C[C@H](CCC[C@H](C)OS(=O)(=O)c1ccccc1)OS(=O)(=O)c1ccccc1`, the T/C was 101 % of control and 110 % of control (endpoint: mean survival time, dose: 12.5 mg/kg/injection, schedule: Q01DX009 (ip), vehicle: saline with Tween-80); 114 % of control and 104 % of control under setting [14].
